Measurements reported in US9890185B2, “Urea derivatives useful as kinase inhibitors” (Respivert Limited, priority 2013, dated 2018).
Where two headings read alike, the source gives them in different places.

Legend:
[1] = system: PBMCs; assay: LPS-induced IL-8 release in PBMC cells (assay b); format: cell-based, human; settings: LPS-stimulated PBMCs, read-out: IC50 Values for Inhibition of Cytokine Release, PBMCs IL-8
Method: Peripheral blood mononuclear cells (PBMCs) from healthy subjects are separated from whole blood using a density gradient (Lymphoprep, Axis-Shield Healthcare). The PBMCs are seeded in 96 well plates and treated with compounds at the desired concentration for 2 hours before addition of 1 ng/mL LPS (Escherichia Coli 0111:B4 from Sigma Aldrich) for 24 hours under normal tissue culture conditions (37° C., 5% CO2). The supernatant is harvested for determination of IL-8 and TNFα concentrations by sandwich ELISA (Duo-set, R&D systems) and read on the fluorescence microplate reader (Varioskan® Flash, ThermoFisher Scientific). The concentration at 50% inhibition (IC50) of IL-8 and TNFα production is calculated from the dose response curve.

[2] = biological target: GSK 3α (Homo sapiens (Human), UniProt P49840); assay: GSK 3α enzyme inhibition (FRET, Z-LYTE, Method 2); format: biochemical; settings: read-out: IC50 Values for Enzyme Inhibition, GSK3α
Sequence of GSK 3α (P49840 whole entry): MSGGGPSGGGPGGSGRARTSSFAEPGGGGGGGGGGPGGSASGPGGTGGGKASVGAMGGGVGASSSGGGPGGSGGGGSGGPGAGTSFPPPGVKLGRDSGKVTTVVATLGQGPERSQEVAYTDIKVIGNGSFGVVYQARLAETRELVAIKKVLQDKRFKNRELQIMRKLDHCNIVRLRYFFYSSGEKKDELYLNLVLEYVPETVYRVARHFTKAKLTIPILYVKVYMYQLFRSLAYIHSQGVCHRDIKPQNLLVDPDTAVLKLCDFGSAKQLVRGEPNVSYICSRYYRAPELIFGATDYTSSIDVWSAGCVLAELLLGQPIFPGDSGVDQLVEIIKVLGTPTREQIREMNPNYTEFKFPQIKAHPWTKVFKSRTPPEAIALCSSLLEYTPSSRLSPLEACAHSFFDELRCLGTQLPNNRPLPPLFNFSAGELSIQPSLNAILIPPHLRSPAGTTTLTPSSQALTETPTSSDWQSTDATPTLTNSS
Method: The enzyme inhibitory activities of compounds disclosed herein are determined by FRET using synthetic peptides labelled with both donor and acceptor fluorophores (Z-LYTE, Invitrogen Ltd., Paisley, UK).
The following two assay variants can be used for determination of GSK 3α inhibition.
The inhibitory activities of compounds of the invention against the GSK 3α enzyme isoform (Invitrogen), are evaluated by determining the level of activation/phosphorylation of the target peptide. The GSK3-α protein (500 ng/mL, 2.5 μL) is mixed with the test compound (2.5 μL at either 4 μg/mL, 0.4 μg/mL, 0.04 μg/mL, or 0.004 μg/mL) for 2 hr at RT. The FRET peptide (8 μM, 2.5 μL), which is a phosphorylation target for GSK3α, and ATP (40 μM, 2.5 μL) are then added to the enzyme/compound mixture and the resulting mixture incubated for 1 hr. Development reagent (protease, 5 μL) is added for 1 hr prior to detection in a fluorescence microplate reader (Varioskan® Flash, ThermoFisher Scientific).
In all cases, the site-specific protease cleaves non-phosphorylated peptide only and eliminates the FRET signal. Phosphorylation levels of each reaction are calculated using the ratio of coumarin emission (donor) over fluorescein emission (acceptor), for which high ratios indicate high phosphorylation and low ratios indicate low phosphorylation levels. The percentage inhibition of each reaction is calculated relative to non-inhibited control and the 50% inhibitory concentration (IC50 value) is then calculated from the concentration-response curve.
This method follows the same steps as Method 1 above, but utilises a shorter period of mixing of the test compound (105 minutes instead of 2 hours) with the GSK3-α protein.

Row | SMILES | IC50 [2] [nM] | IC50 ([1]; Homo sapiens, PBMC) [nM] | IC50 [1] [nM]
1 | COc1c(NC(=O)Nc2ccc(Oc3ccnc(NCCN4CCOCC4)n3)c3ccccc23)cc(C(C)(C)C)cc1P(C)(C)=O [15(al), 1-(5-(tert-butyl)-3-(dimethylphosphoryl)-2-methoxyphenyl)-3-(4-((2-((2-morpholinoethyl)amino)pyrimidin-4-yl)oxy)naphthalen-1-yl)urea] | 339 |  | 3.7
2 | COc1c(NC(=O)Nc2ccc(Oc3ccnc(Nc4cc(C)cc(Cl)c4)c3)c3ccccc23)cc(C(C)(C)C)cc1P(C)(C)=O [15(am), 1-(5-(tert-butyl)-3-(dimethylphosphoryl)-2-methoxyphenyl)-3-(4-((2-((3-chloro-5-methylmethylphenyl)amino)pyridin-4-yl)oxy)naphthalen-1-yl)urea] |  | 6.1 | 
3 | COc1cc(Nc2cc(Oc3ccc(NC(=O)Nc4cc(C(C)(C)C)cc(C(=O)NCCN5CCNCC5)c4OC)c4ccccc34)ccn2)cc(OC)c1 [79(h), 5-(tert-Butyl)-3-(3-(4-((2-((3,5-dimethoxyphenyl)amino)pyridin-4-yl)oxy)naphthalen-1-yl)ureido)-2-methoxy-N-(2-(piperazin-1-yl)ethyl)benzamide] |  | 16.4 | 
4 | COc1cc(Nc2nccc(Oc3ccc(NC(=O)Nc4cc(C(C)(C)C)cc(S(C)(=O)=O)c4OC)c4ccccc34)n2)ccc1C(=O)O [79(i), 4-((4-((4-(3-(5-(tert-Butyl)-2-methoxy-3-(methylsulfonyl)phenyl)ureido)naphthalen-1-yl)oxy)pyrimidin-2-yl)amino)-2-methoxybenzoic acid] |  | 12.2 | 
5 | COc1cc(Nc2nccc(Oc3ccc(NC(=O)Nc4cc(C(C)(C)C)cc([S+](C)[O-])c4OC)c4ccccc34)n2)ccc1C(=O)O (stereo not drawn) [79(j), 4-((4-((4-(3-(5-(tert-Butyl)-2-methoxy-3-(methylsulfinyl)phenyl)ureido)naphthalen-1-yl)oxy)pyrimidin-2-yl)amino)-2-methoxybenzoic acid] |  | 15.3 | 
6 | COc1cc(Nc2cc(Oc3ccc(NC(=O)Nc4cc(C(C)(C)C)cc(P(C)(C)=O)c4OC)c4ccccc34)ccn2)cc(C(=O)N(C)CCN2CCN(C)CC2)c1 [79(k), 3-((4-((4-(3-(5-(tert-Butyl)-3-(dimethylphosphoryl)-2-methoxyphenyl)ureido)naphthalen-1-yl)oxy)pyridin-2-yl)amino)-5-methoxy-N-methyl-N-(2-(4-methylpiperazin-1-yl)ethyl)benzamide] |  | 7 | 
7 | COc1cc(Nc2cc(Oc3ccc(NC(=O)Nc4cc(C(C)(C)C)cc(P(C)(C)=O)c4OC)c4ccccc34)ccn2)cc(C(=O)N(C)CCC2CCN(C)CC2)c1 [79(l), 3-((4-((4-(3-(5-(tert-Butyl)-3-(dimethylphosphoryl)-2-methoxyphenyl)ureido)naphthalen-1-yl)oxy)pyridin-2-yl)amino)-5-methoxy-N-methyl-N-(2-(1-methylpiperidin-4-yl)ethyl)benzamide] |  | 22.5 | 
8 | COCCOCCOCCNC(=O)c1cc(Nc2nccc(Oc3ccc(NC(=O)Nc4cc(C(C)(C)C)cc(CNC(=O)CN(C)C)c4OC)c4ccccc34)n2)cc(OC)c1 [Example 81, 3-((4-((4-(3-(5-(tert-Butyl)-3-((2-(dimethylamino)acetamido)methyl)-2-methoxyphenyl)ureido)-naphthalen-1-yl)oxy)pyrimidin-2-yl)amino)-5-methoxy-N-(2-(2-(2-methoxyethoxy)ethoxy)-ethyl)benzamide] |  | 0.4 | 
9 | COCCOCCOCCNC(=O)c1cc(Nc2cc(Oc3ccc(NC(=O)Nc4cc(C(C)(C)C)cc(CN5CCN(C)CC5)c4OC)c4ccccc34)ccn2)cc(OC)c1 [Example 82, 3-((4-((4-(3-(5-(tert-Butyl)-2-methoxy-3-((4-methylpiperazin-1-yl)methyl)phenyl)ureido)-naphthalen-1-yl)oxy)pyridin-2-yl)amino)-5-methoxy-N-(2-(2-(2-methoxyethoxy)ethoxy)ethyl)-benzamide] |  | 1.7 | 
10 | COc1cc(Nc2nccc(Oc3ccc(NC(=O)Nc4cc(C(C)(C)C)cc([S+](C)[O-])c4OC)c4ccccc34)n2)cc(C(=O)NCCN2CCN(C)CC2)c1 (stereo not drawn) [Example 83, 3-((4-((4-(3-(5-(tert-Butyl)-2-methoxy-3-(methylsulfinyl)phenyl)ureido)naphthalen-1-yl)oxy)pyrimidin-2-yl)amino)-5-methoxy-N-(2-(4-methylpiperazin-1-yl)ethyl)benzamide] |  | 1.5 | 

Now from value to molecule, other results behind:

Row | IC50 [2] [nM] | SMILES | IC50 ([1]; Homo sapiens, PBMC) [nM] | IC50 [1] [nM]
11 | > 11100 | COc1c(NC(=O)Nc2ccc(Oc3ccnc(Nc4ccccc4)c3)c3ccccc23)cc(C(C)(C)C)cc1[S+](C)[O-] (single isomer, unassigned) [38(b2), 1-(5-(tert-Butyl)-2-methoxy-3-(methylsulfinyl)phenyl)-3-(4-((2-(phenylamino)pyridin-4-yl)oxy)naphthalen-1-yl)urea] | 6 | 
12 | 97 | COc1c(NC(=O)Nc2ccc(Oc3ccnc(Nc4ccc5c(c4)C(=O)NC5)n3)c3ccccc23)cc(C(C)(C)C)cc1P(C)(C)=O [15(ab), 1-(5-(tert-butyl)-3-(dimethylphosphoryl)-2-methoxyphenyl)-3-(4-((2-((3-oxoisoindolin-5-yl)amino)pyrimidin-4-yl)oxy)naphthalen-1-yl)urea] | 5.5 | 
13 | > 14700 | CCP(=O)(CC)c1cc(C(C)(C)C)cc(NC(=O)Nc2ccc(Oc3ccnc(Nc4ccccc4)c3)c3ccccc23)c1OC [15(ac), 1-(5-(tert-butyl)-3-(diethylphosphoryl)-2-methoxyphenyl)-3-(4-((2-(phenylamino)-pyridin-4-yl)oxy)naphthalen-1-yl)urea] | 9.1 | 
14 | 871 | COc1c(NC(=O)Nc2ccc(Oc3ccnc(Nc4cncc(N(C)C)n4)c3)c3ccccc23)cc(C(C)(C)C)cc1P(C)(C)=O [15(ae), 1-(5-(tert-butyl)-3-(dimethylphosphoryl)-2-methoxyphenyl)-3-(4-((2-((6-(dimethylamino)pyrazin-2-yl)amino)pyridin-4-yl)oxy)naphthalen-1-yl)urea] | 3.9 | 
15 | 5810 | COc1c(NC(=O)Nc2ccc(Oc3ccnc(Nc4ccccc4)c3)c3ccccc23)cc(C(C)(C)C)cc1C(=O)NCCN1CCCC1 [15(ag), 5-(tert-butyl)-2-methoxy-3-(3-(4-((2-(phenylamino)pyridin-4-yl)oxy)naphthalen-1-yl)ureido)-N-(2-(pyrrolidin-1-yl)ethyl)benzamide] | 9.8 | 
16 | 602 | COc1c(NC(=O)Nc2ccc(Oc3ccnc(NC4CCN(C)CC4)n3)c3ccccc23)cc(C(C)(C)C)cc1P(C)(C)=O [15(ah), 1-(5-(tert-butyl)-3-(dimethylphosphoryl)-2-methoxyphenyl)-3-(4-((2-((1-methylpiperidin-4-yl)amino)pyrimidin-4-yl)oxy)naphthalen-1-yl)urea] | 299 | 
17 | 127 | COc1c(NC(=O)Nc2ccc(Oc3ccnc(N[C@@H]4CCOC4)n3)c3ccccc23)cc(C(C)(C)C)cc1P(C)(C)=O [15(ai), (R)-1-(5-(tert-butyl)-3-(dimethylphosphoryl)-2-methoxyphenyl)-3-(4-((2-((tetrahydrofuran-3-yl)amino)pyrimidin-4-yl)oxy)naphthalen-1-yl)urea] | 3.7 | 
18 | 68 | COc1c(NC(=O)Nc2ccc(Oc3ccnc(N[C@H]4CCOC4)n3)c3ccccc23)cc(C(C)(C)C)cc1P(C)(C)=O [15(aj), (S)-1-(5-(tert-butyl)-3-(dimethylphosphoryl)-2-methoxyphenyl)-3-(4-((2-((tetrahydrofuran-3-yl)amino)pyrimidin-4-yl)oxy)naphthalen-1-yl)urea] | 1.8 | 
19 | 387 | COc1c(NC(=O)Nc2ccc(Oc3ccnc(NCCn4cccn4)n3)c3ccccc23)cc(C(C)(C)C)cc1P(C)(C)=O [15(ao), 1-(4-((2-((2-(1H-pyrazol-1-yl)ethyl)amino)pyrimidin-4-yl)oxy)naphthalen-1-yl)-3-(5-(tert-butyl)-3-(dimethylphosphoryl)-2-methoxyphenyl)urea] | 4.1 | 
20 | > 16900 | Cc1c(NC(=O)Nc2ccc(Oc3ccnc(Nc4ccccc4)c3)c3ccccc23)cc(C(C)(C)C)cc1P(C)(C)=O [15(ap), 1-(5-(tert-butyl)-3-(dimethylphosphoryl)-2-methylphenyl)-3-(4-((2-(phenylamino)pyridin-4-yl)oxy)naphthalen-1-yl)urea] | 48.3 | 
21 | 356 | COc1c(NC(=O)Nc2ccc(Oc3ccnc(Nc4cnn(C)n4)c3)c3ccccc23)cc(C(C)(C)C)cc1P(C)(C)=O [15(ar), 1-(5-(tert-butyl)-3-(dimethylphosphoryl)-2-methoxyphenyl)-3-(4-((2-((2-methyl-2H-1,2,3-triazol-4-yl)amino)pyridin-4-yl)oxy)naphthalen-1-yl)urea] | 0.8 | 
